Patent US20040077080A1, “Compositions and methods for induction of proteins involved in xenobiotic metabolism” (priority 2000, published 2004)
“Also recorded” adds a separate entry of the source.

How the values were obtained:
[1] = system: PXR / CYP3A4 response elements; test: DPX2 (Hepg-hPXR/3A4-Luc) luciferase assay; settings: DPX2 cells, kava-kava 100 micrograms per milliliter, chrysin 25 micromoles per liter
Protocol: Compounds tested included known PXR ligands and conventional drugs (FIG. 30A), environmental contaminants (FIG. 30B), and herbal supplements (FIG. 30C). DPX2 cells were cultured with DMEM supplemented with 10% fetal bovine serum and neomycin. Cells were inoculated into 96-well plate at a density of 1×10^4 cells per well the day before treatment.
2. […] In addition, a distal enhancer module, XREM, was amplified by PCR using the sense primer
The resulting amplified XREM fragment was ligated upstream of PXRE containing a 3A4 promoter, into a luciferase vector.
A neomycin resistance gene was generated by PCR amplification using the pcDNA3.1 plasmid (Invitrogen, Carlsbad, Calif.), which encodes a neomycin resistant gene, as a DNA template. The sense primer had the sequence […] Amplification was followed by SalI digestion of the PCR product, and the resulting fragment ligated to the SalI-digested PGL3-promoter plasmid, which contains luciferase as a reporter gene. […] The CYP3A4 cell line DPX2 (Hepg-hPXR/3A4-Luc) was established by double transfection with the PXR expression plasmid and the luciferase plasmid containing CYP3A4 PXR response element under selection with both neomycin and hygromycin.

[2] = system: AhR (dioxin response elements); test: DRE12-6 luciferase assay (HepG2 with dioxin response elements); settings: DRE12-6 cells, 28 hours
Protocol: (§2) FIG. 25A: DRE12-6 cells were treated for 28 hours with the indicated concentrations of phytochemicals. FIG. 25B: DRE12-6 cells were treated with the indicated chemicals for 3 hours prior to co-treatment with 2,3,7,8-tetrachlorodibenzo-p-dioxin (TCDD) for 28 hours.
(§3) Chemical treatment was followed by cell lysis and luciferase measurement.
(§4) FIG. 26A: DRE12-6 cells were inoculated into a 96-well plate (2×10^4 cells per well) a day prior to treatment and treated for 28 hours with the indicated concentrations of the environmental contaminants (PAHs, PAH derivatives, PCBs, or pesticide derivatives). FIG. 26B: DRE12-6 cells were treated with the indicated chemicals for 3 hours prior to co-treatment with 2,3,7,8-tetrachlorodibenzo-p-dioxin (TCDD) for 28 hours.
(§5) The luciferase-SV40 promoter vector, with the three copies of the dioxin response elements, was transfected into HepG2 cells, which were put under neomycin selection to yield the stable cell line DRE12-6, for detection of AhR-dependent transactivation.
(§6) Luciferase assay: Luciferase assays using the LucLite system (Packard Instrument Co., Meriden, Conn.) were performed according to the manufacturer's instructions. Results were expressed as relative light units or fold induction, relative to DMSO-treated control cells. The data represent the mean±standard deviation of experiments performed in duplicate.

[3] = system: CYP1A1 mRNA; test: Northern blot of CYP1A1 in primary human hepatocytes (Example V)
Text: The isolated RNA was subjected to Northern blot analysis.

[4] = system: PXR / mdr1(dr4) response element; test: Hep-PXR/Pgp-Luc stable cell luciferase assay; settings: Hep-PXR/PgpLuc cells, 48 hours; omeprazole 100 micromoles per liter versus rifampicin 10 micromoles per liter
Protocol: FIG. 35 depicts dose-response behavior to various PXR activators in stable cell lines overexpressing PXR and harboring DR4 response element. FIG. 35A: Results are shown for the stable cell line Hep-PXR/PgpLuc. FIG. 35B: Results are shown for the stable cell line Caco-PXR/PgpLuc.
Cells were exposed to the test compounds for 48 hours at the concentrations indicated.
FIG. 36 depicts the effect of environmental and botanical chemicals on luciferase activity in the stable cell line Hep-PXR/PgpLuc. Cells were inoculated into 96-well plates at a density of 2×10^4 cells per well. After overnight recovery, cells were treated with the test compounds at the concentrations indicated for 48 hours.
Establishment of stable transformants containing both PXR and reporter plasmid and development of high throughput bioassay for PXR-dependent transactivation: The stable transformants Hep-PXR/mdr1(dr4)-Luc and Caco-PXR/mdr1(dr4)-Luc cell lines were generated from the parental cell lines HepG-PXR and Caco-PXR, respectively, according to the following procedure. The parental cell lines HepG-PXR and Caco-PXR, which overexpress PXR, were stably transfected with the luciferase reporter plasmid mdr1(dr4)-Luc. The transfected cells were cultured in DMEM (HepG-PXR cells) or in IMEM (Caco-PXR cells), both media supplemented with 10% fetal bovine serum and neomycin (700 micrograms per milliliter).
For the induction assay, stable transformants were seeded in 96-wells plates at a density of 1×10^4 cells per well and allowed to recover overnight. Plates were treated with test compounds at varying concentrations, using 3 replicates per dose. After 48 hours of exposure to the test compound, cells were washed with phosphate buffered saline, lysis buffer was applied to the wells, and luciferase substrate added. Following 10 minutes for light adaptation, luminescence was monitored according to the manufacturer's instructions (Packard kit, Biomed).

[5] = system: CYP2C19 (hCAR); test: CYP2C19 induction in HepG2 cell lines stably transfected with hCAR
[6] = system: CYP3A4 enhancer (PXRE); test: Luciferase reporter assay, HepG2 cells stably transformed with CYP3A4 enhancer (colony 13); settings: 72 hours, omeprazole 100, clotrimazole 10, RU486 10, PCN 50, TCDD 1 micromolar
Text: (§7) HepG2 cells were harvested at approximately 50% confluency and seeded in six well dishes at 5×10^5 cells per well in DMEM containing 10% fetal bovine serum (FBS). […] The control cells were those that received plasmid DNA containing pGL3 promoter and pIRES(neo) or pGL3promoter and hPXR in pIRES(neo). After sixteen hours of exposure to the precipitated DNA, the culture medium was removed, cells washed twice with DMEM, and fresh media containing 10% FBS added. After an additional twenty four hours, media was replaced with that containing 400 micrograms per milliliter of G418. Media was changed every two days for three weeks until small colonies were visible. Single colonies were selected and transferred to twenty four well Costar plates (VWR, Westchester, Pa.). Each of the twenty four wells contained the same media and cells were grown to confluency with media changes every three days. Confluent wells were trypsinized and cells transferred into six well plates and upon reaching confluency therein, cells were further transferred to T75 flasks.
(§8) Luciferase assays were performed as specified by the manufacture (LucLite system, Packard Instrument, Meriden, Conn.). Activity was determined using the Packard LumniCount luminometer and results expressed as relative light units or fold increase above control (DMSO treated cells).
(§9) Cells were seeded in T75 flasks and grown to confluency. […]

[7] = system: human CYP1A1 promoter (Ah receptor); test: 101L cell luciferase assay (HepG2 with human CYP1A1 promoter-luciferase), 96-well; settings: 101L cells; for fold increase in luciferase activity, dose response of known CYP1A1 inducers: benzanthracene and omeprazole maximum at 100 micromolar, TCDD at 2 nanomolar
Protocol: Cells were initially seeded in flasks containing media without G418. After an overnight incubation the cultures were changed into media containing G418 for antibiotic selection. After three to five days, cells were removed from flasks by trypsinization and replated on either a twenty-four-well plate at a density of 3.5×10^5 cells per well, or a ninety-six-well plate at a density of 7.5×10^4 cells per well, in DMEM media that was replaced with that containing 0.1% FBS and without G418 or indicator (phenol red). The next day, media containing 0.1% FBS and G418 was added to the cultures. […] For the antagonist experiments, cells were co-treated with a flavonoid and two nanomolar TCDD. All inducers were dissolved in DMSO and this reagent was added to control cells at 0.1%. The cells were treated with varous doses and times (six to eighteen hours). After treatment, the media containing the compound was removed by aspiration and replaced with one-hundred microliters per well of DMEM for direct analysis of luciferase activity. Experiments were performed on 101L cells from frozen stocks on the initial derivation and the passage number was limited to thirty.
Luciferase assays were performed as specified by the manufacturer (LucLite system, Packard Instrument, Meriden, Conn.). Activity was determined using a Packard LumiCount luminometer and results expressed as relative light units or fold increase above control (DMSO treated cells.

[8] = system: hPXR / CYP3A4 enhancer; settings: colony 1F; 72 hours; omeprazole 100 micromolar, PCN 50 micromolar, TCDD 1 micromolar
Text: as §7, §8, §9

[9] = system: CYP1A1 mRNA; test: Northern blot of CYP1A1 mRNA in HepG2 cells; settings: HepG2 cells; mean of two determinations
Protocol: HepG2 cells were obtained from American Type Culture Collection (ATCC). Cells were grown in DMEM (Gibco/BRL). Twenty-four hours after cells were plated and grown to confluency, they were treated with one of the bioflavonoids, TCDD, or beta-naphthoflavone (Sigma). All inducers were dissolved in DMSO and this solvent was added to control cells at 0.1%.
(§1) Total RNA from hepatocytes or HepG2 cells was isolated using Trizol™ reagent (Gibco BRL Products, Gaithersburg, Md.) and quantified by measuring absorbance at 260 nm; purity was assessed by determining the 260/280 nm ratio. […] A cDNA probe for human 18S RNA probe (Ambion, Austin Tex.) was used to normalize the amount of RNA loaded in each lane. […] Autoradiographs of Northern blots were quantified by densitometry using a Model GS-670 Imaging Densitometer equipped with Molecular Analysis/Mac version 1.1.1. Image Analysis software (BioRad laboratories, Hercules, Calif.) or by scaning autoradiograms with a ScanMaker II (Microtek) and digitized with Un-Scan-It software (Silk Scientific, Orem Utah). Exposure times used were in the linear range of the film, Kodak XAR-5.

[10] = system: CYP1A1 mRNA; test: Northern blot of CYP1A1 mRNA in primary cultures of human hepatocytes (Example II); settings: primary human hepatocytes
Protocol: Six well plates containing human hepatocytes were obtained from the Liver Tissue Procurement and Distribution System (LTPADS, University of Minnesota, Minneapolis, Minn.). […] All inducers were dissolved in DMSO and added to media at a 0.1% final concentration of this reagent. After treatment, media was removed and cells harvested for RNA isolation.
as §1

[11] = system: AhR (dioxin response elements); test: in vitro; settings: human, fold induction of luciferase activity above DMSO, DRE12-6 cells, 28 hours; TCDD 10 nanomoles per liter, omeprazole 25, 2-AAF 100, DMBA 20 micromoles per liter
Protocol: as §2, §3, §4, §5, §6

[12] = system: CYP3A4 mRNA; settings: human, hepatocytes
Protocol: FIG. 13 depicts the effect of various CYP3A4 inducers on CYP3A4 expression in human hepatocytes. […] Total RNA (ten micrograms) was subjected to northern blot analysis and developed with a specific cDNA probe to CYP3A4 as described in the Examples.
Human hepatocytes were treated with various CYP3A4 inducers for forty eight hours, harvested, and RNA and cell homogenates isolated.

[13] = system: CYP3A4 mRNA; settings: human, hepatocytes; remark: listed apart in the source
Protocol: FIG. 28B: Human primary hepatocytes were exposed for 48 hours to commercial health supplements including grapeseed, garlic, kava-kava, and ginseng.
Total RNA was prepared from the treated cells, subjected to electrophoresis on a 1% formaldehyde gel, and transferred onto a nylon membrane.

[14] = system: T1, CAR (hCAR) (Homo sapiens), Q14994-2; test: cell_activity; settings: Caco-2 luciferase, fold above no receptor
T1 sequence: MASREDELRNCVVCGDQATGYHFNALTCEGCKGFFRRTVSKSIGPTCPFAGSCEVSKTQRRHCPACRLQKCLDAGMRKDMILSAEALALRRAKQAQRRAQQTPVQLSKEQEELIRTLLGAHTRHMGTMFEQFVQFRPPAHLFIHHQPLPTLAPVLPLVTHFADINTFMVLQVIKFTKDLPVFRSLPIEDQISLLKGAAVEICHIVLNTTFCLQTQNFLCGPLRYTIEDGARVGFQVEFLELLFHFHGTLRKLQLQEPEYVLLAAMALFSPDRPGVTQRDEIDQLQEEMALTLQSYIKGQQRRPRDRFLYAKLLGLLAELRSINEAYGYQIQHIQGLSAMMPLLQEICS

[15] = biological target: CAR/RXR heterodimer (hCAR/hRXRa) (Homo sapiens, UniProt Q14994-2;P19793 Q14994-2:1-348,P19793:1-462); test: EMSA; settings: tags: TNT coupled transcription/translation (Promega); label: 32P
[16] = TCDD 10 nanomoles per liter, omeprazole 25, 2-AAF 100, DMBA 20 micromoles per liter
[17] = primary hepatocytes, 24 hours, TCDD 10 nanomoles per liter, 3-MC 0.5 nanomoles per liter, omeprazole 100, chrysin 25, curcumin 50, resveratrol 25, DMBA 20, 2-AAF 100 micromoles per liter

Chain of CAR/RXR heterodimer (hCAR/hRXRa) (P19793 whole entry, one chain of several): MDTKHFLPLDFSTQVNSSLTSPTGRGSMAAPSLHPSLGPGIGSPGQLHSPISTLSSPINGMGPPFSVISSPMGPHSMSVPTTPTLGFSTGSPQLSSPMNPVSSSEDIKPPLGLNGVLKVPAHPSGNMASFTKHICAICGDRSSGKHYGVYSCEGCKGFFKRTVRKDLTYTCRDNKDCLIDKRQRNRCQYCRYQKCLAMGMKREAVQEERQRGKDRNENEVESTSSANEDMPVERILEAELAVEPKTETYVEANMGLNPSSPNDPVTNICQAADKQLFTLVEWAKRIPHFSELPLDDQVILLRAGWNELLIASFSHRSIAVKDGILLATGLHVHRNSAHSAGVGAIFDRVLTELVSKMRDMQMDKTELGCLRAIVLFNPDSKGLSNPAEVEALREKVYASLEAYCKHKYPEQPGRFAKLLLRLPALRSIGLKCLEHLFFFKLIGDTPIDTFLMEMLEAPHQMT

Molecule: CC(=O)Nc1ccc2c(c1)Cc1ccccc1-2 [2-AAF, 2-acetylaminofluorene]
- fold induction of luciferase activity above DMSO ([1]; 48 hours): 24.7 fold
- fold induction at 48 h ([1]; human, fold induction of luciferase activity above DMSO): 24.8
- fold induction of luciferase activity above DMSO [2, 16]: 10.21±0.36 fold
- fold induction of luciferase activity above DMSO ([2]; TCDD 10 nanomoles per liter, omeprazole 25, 2-AAF 100, DMBA 20 micromoles per liter, listed as 2-acetylaminofluorene): 4.8 fold
- CYP1A1 induction by Northern blot (in words) [3, 17]: increased CYP1A1 expression slightly
- strength of luciferase induction (in words) [4]: strongly induced

Molecule: Cc1ccc2cc3c(ccc4ccccc43)c3c2c1CC3 [3-MC, 3-methylcholanthrene]
- AhR-mediated luciferase induction (in words) [2]: dose-dependent increase
- CYP1A1 induction by Northern blot (in words) ([3]; hepatocytes): maximum induction

Molecule: Clc1ccc(-c2nc3sccn3c2C=NOCc2ccc(Cl)c(Cl)c2)cc1 [CITCO, 6-(4-chlorophenyl)imidazo[2,1-b][1,3]thiazole-5-carbaldehyde-O-(3,4-dichlorbenzyl)oxime]
- induction of HepG2 CYP2C19 (in words) [5]: induce HepG2 CYP2C19

Molecule: Clc1cc2c(cc1Cl)Oc1cc(Cl)c(Cl)cc1O2 [TCDD]
- fold increase in luciferase activity above DMSO, single concentrations (FIG. 15) [6]: less than one
- fold increase in luciferase activity, dose response of known CYP1A1 inducers [7]: twelve to thirty-five; also recorded: twenty-two
- AhR-mediated luciferase induction (in words) [2]: dose-dependent increase
- fold induction of luciferase activity above DMSO [2, 16]: 12.99±0.64 fold
- fold induction at 28 h ([2]; human, fold induction of luciferase activity above DMSO, TCDD 10 nanomoles per liter, omeprazole 25, 2-AAF 100, DMBA 20 micromoles per liter): 20
- fold increase in luciferase activity above DMSO, single concentrations (FIG. 14) [8]: less than two
- CYP1A1 induction by Northern blot (in words) [3, 17]: maximum induction
- HepG2 CYP1A1 mRNA (%), normalized to TCDD induction [9]: 100%
- CYP1A1 mRNA level Subject A (%), normalized to TCDD induction ([10]; 24 hours): 100%
- CYP1A1 mRNA level Subject B (%), normalized to TCDD induction ([10]; 24 hours): 100%
- CYP1A1 mRNA level Subject D (%), normalized to TCDD induction ([10]; 24 hours): 100%

Molecule: c1ccc2cc3c(ccc4ccccc43)cc2c1 [benzanthracene]
- maximum CYP1A1 mediated luciferase activity ([7]; 96-well plate format, 50 micromolar benzanthracene): 33 fold
- fold increase in luciferase activity, dose response of known CYP1A1 inducers [7]: twelve to thirty-five
- fold induction [11]: 28.7 ± 1.65
- CYP1A1 mRNA level Subject A (%), normalized to TCDD induction ([10]; 24 hours): 50%
- CYP1A1 mRNA level Subject B (%), normalized to TCDD induction ([10]; 24 hours): 50%
- CYP1A1 mRNA level Subject C (%), normalized to benzanthracene induction ([10]; Subject C, 24 hours): 100%
- CYP1A1 mRNA level Subject D (%), normalized to TCDD induction ([10]; 24 hours): 52%
- CYP1A1 mRNA, % of that observed with TCDD, all subjects ([10]; 100 micromolar benzanthracene): 50%

Molecule: CCC1(c2ccccc2)C(=O)NC(=O)NC1=O [phenobarbital]
- induction of HepG2 CYP2C19 (in words) [5]: induce HepG2 CYP2C19
- fold increase in CYP3A4 mRNA [12]: 3.8 fold
- CYP3A4 mRNA by Northern blot (in words) [13]: increased CYP3A4 gene expression

Molecule: CYP2B6 PBREM reporter
- activity [14]: 6.16 fold

B1: CYP2C19 F4 fragment (dsDNA)
DNA 1: AACCAAACTCTTCTGACCCCCAATCT
DNA 2: AGATTGGGGGTCAGAAGAGTTTGGTT
- binding result [15]: binds
